Assay results reported in ChEMBL document CHEMBL5543120, “Discovery of Novel 5,6-Dihydro-4H-pyrido[2,3,4-de]quinazoline Irreversible Inhibitors Targeting Both Wild-Type and A775_G776insYVMA Mutated HER2 Kinases” (J Med Chem, 2024).

Legend:
in vivo [1] = settings: rat, po, 10 mg/kg
in vivo [2] = settings: rat, iv, 3 mg/kg
in vivo [3] = settings: rat, po, 10 mg/kg; remark: listed apart in the source
in vivo [4] = settings: rat, po, 10 mg/kg; remark: listed apart in the source
in vivo [5] = settings: rat, po, 10 mg/kg; remark: listed apart in the source
in vivo [6] = settings: rat, iv, 3 mg/kg; remark: listed apart in the source
in vivo [7] = settings: rat, iv, 3 mg/kg; remark: listed apart in the source
in vivo [8] = settings: rat, iv, 3 mg/kg; remark: listed apart in the source
in vivo [9] = settings: rat, po, 10 mg/kg; remark: listed apart in the source

SMILES | Tmax (in vivo [1]) | Vd (in vivo [2]) | AUC(0-t) (in vivo [3]) | Cmax (in vivo [4]) | bioavailability (in vivo [5]) | half-life (in vivo [6]) | clearance (in vivo [7]) | AUC(0-t) (in vivo [8]) | half-life (in vivo [9])
CN1CCC[C@@H]1/C=C/C(=O)Nc1ccc2ncnc3c2c1CCN3c1ccc(OCc2ccccn2)c(Cl)c1 | 0.5 h | 17.8 L/kg | 157 ng·h/mL | 23.8 ng/mL | 7.43% | 4.88 h | 74.6 mL/min/kg | 667 ng·h/mL | 6.46 h
CN(C)C/C=C/C(=O)Nc1ccc2ncnc(Nc3ccc(OCc4ccccn4)c(Cl)c3)c2c1-c1ccccc1 | 3.67 h | 8.1 L/kg | 1300 ng·h/mL | 124 ng/mL | 30.4% | 3.81 h | 38.4 mL/min/kg | 1290 ng·h/mL | 4.1 h
CCOc1cc2ncc(C#N)c(Nc3ccc(OCc4ccccn4)c(Cl)c3)c2cc1NC(=O)/C=C/CN(C)C [NERATINIB] | – | 5.01 L/kg | – | – | 18.2% | – | 20.8 mL/min/kg | – | –
